Series [1] has as its system Enterobacter cloacae 963. Description: Antibacterial activity (MIC), Enterobacter cloacae 963. It is filed as cell-based. As to conditions: Enterobacter cloacae, 963, Enterobacter cloacae 963, Gram -; read-out: Minimum inhibitory concentration (MIC). The gist of the method: (§1)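 Dissolve compound in 0.1 N aqueous sodium hydroxide or sterilized distilled water to 5000 μg/ml; dilute to a 1000 μg/ml standard; measure MIC as prescribed by the Japan Society of Chemotherapy.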

Series [2] has as its system clinically isolated methicillin resistant Staphylococcus aureus. Description: MIC against clinically isolated methicillin resistant Staphylococcus aureus. As to conditions: 54 strains; for MIC50: minimum concentration for inhibiting growth of the strains by 50%; for MIC90: minimum concentration for inhibiting growth of the strains by 90%. It is filed as cell-based. The protocol: The compounds (A) and (J) of the present invention and the known compound (X) were dissolved in 0.1 N aqueous sodium hydroxide, and the known compound (Y) in sterilized distilled water, to prepare a solution of 5000 μg/ml in concentration each. The above solutions were then diluted with sterilized distilled water to prepare a standard solution with a concentration of the test compound: 1000 μg/ml each. The test was carried out by a method appointed by Japan Society of Chemotherapy (ibidem) to measure minimum inhibitory concentration (MIC) against 54 strains of clinically isolated methicillin resistant Staphylococcus aureus, from which there were calculated a range of MIC (MICrange) of the test compound against these resistant strains, a minimum concentration for inhibiting the growth of the strains by 50% (MIC50) and a minimum concentration for inhibiting the growth of the strains by 90% (MIC90).

The subject of series [3] is infection. Description: Protective effects against infection (Experiments 3 and 4). Type of series: in vivo, ddY male mice. As to conditions: result in words. Here is the method: (§2) The test microorganisms were subjected to standing culture in Trypto-Soya Agar "Nissui" (made by Nissui Seiyaku K.K., Japan) at 37° C. for 16 to 18 hours. The culture was then diluted with PBS (Dulbecco's phosphate buffered saline) and mixed with an equivalent amount of 10% (w/v) Mucin (BACTO MUCIN BACTERIOLOGICAL, made by Difco Co.) to prepare a microorganism solution. The thus prepared microorganism solution (0.5 ml each) was intraperitoneally inoculated to ddY male mice (5 weeks age, weighing 25-28 g, 5 mice in each group), to infect the animals. One hour after the infection, the compound (A) or (J) of the present invention or the known compound (X) suspended in 1% (w/v) aqueous gum arabic or the known compound (Y) dissolved in sterilized distilled water was orally adiministered to mice.
(§3) The mice were daily observed for one week, and from the survival number of mice after one week, the 50% effective dose (ED50) was calculated by Weil method.
The procedure of Experiment 3 was repeated except that ddY male mice weighing 24 to 28 g were employed.

Series [4] is described as follows: Low toxicity (Experiments 5 and 6). It is filed as in vivo, ddY male mice. The following applies: result in words. Here is the method:
(§4) The compound (A) or (J) of the present invention was suspended in 1% (w/v) aqueous gum arabic to prepare a suspension in concentration of 100 mg/ml. The suspension was orally administered to ddY male mice (5 weeks age, weighing 20 to 25 g, 5 mice in each group), which had been fasted for 18 hours, at a rate of 2000 mg/kg body weight of the compound (A) or (J).
The compound (O) or (P) of the present invention was suspended in sterilized distilled water to prepare a suspension. The suspension was orally adminstered to ddY male mice (5 weeks age, weighing 20 to 25 g, 5 mice in each group), which had been fasted for 18 hours.

Series [5] relates to Enterobacter aerogenes ATCC 13048. Description: Antibacterial activity (MIC), Enterobacter aerogenes ATCC 13048. The following applies: Klebsiella aerogenes, ATCC13048; Enterobacter aerogenes ATCC 13048, Gram -; read-out: Minimum inhibitory concentration (MIC). Type of series: cell-based. The gist of the method:
as §1

Series [6] has as its system Staphylococcus aureus FDA 209P JC-1. Description: Antibacterial activity (MIC), S. aureus FDA 209P JC-1. It is filed as cell-based. The following applies: FDA209P, read-out: Minimum inhibitory concentration (MIC). The gist of the method: as §1
In series [7] the test system is Staphylococcus aureus IID 803. Description: Effect on treatment of general infectious disease, S. aureus IID 803 (Experiment 3). Type of series: in vivo, ddY male mice infected with Staphylococcus aureus. As to conditions: IID803, 168 h, oral, 1 h after i.p. infection, 5.0×10^7 CFU/mouse, survival after one week. The protocol: Staphylococcus aureus IID 803 (5.0×10^7 CFU/mouse)
as §2, §3

Series [8] in a line: Acute toxicity (Experiment 5). As to conditions: mouse, in vivo, po, 2000 mg/kg. Here is the method: as §4
Series [9] relates to Shigella sonnei EW-33. Description: Antibacterial activity (MIC), Shigella sonnei EW-33. It is filed as cell-based. As to conditions: Shigella sonnei, EW33, Shigella sonnei EW-33, Gram -; read-out: Minimum inhibitory concentration (MIC). Put shortly:
as §1

Series [10] has as its system Morganella morganii IFO 3848. Description: Antibacterial activity (MIC), Morganella morganii IFO 3848. Type of series: cell-based. The following applies: Morganella morganii, IFO3848, Morganella morganii IFO 3848, Gram -; read-out: Minimum inhibitory concentration (MIC). Put shortly:
as §1

Series [11] deals with Staphylococcus epidermidis IAM-1296. Description: Antibacterial activity (MIC), S. epidermidis IAM-1296. It is filed as cell-based. As to conditions: Staphylococcus epidermidis, IAM1296, Staphylococcus epidermidis IAM-1296, Gram +; read-out: Minimum inhibitory concentration (MIC). Put shortly:
as §1

Series [12] relates to Escherichia coli NIHJ JC-2. Description: Antibacterial activity (MIC), E. coli NIHJ JC-2. Type of series: cell-based. The following applies: NIHJJC2; Escherichia coli NIHJ JC-2, Gram -; read-out: Minimum inhibitory concentration (MIC). The gist of the method:
as §1

The subject of series [13] is Proteus vulgaris OX-19. Description: Antibacterial activity (MIC), Proteus vulgaris OX-19. It is filed as cell-based. The following applies: OX19; Proteus vulgaris OX-19, Gram -; read-out: Minimum inhibitory concentration (MIC). Put shortly: as §1
The test system of series [14] is Pseudomonas aeruginosa E-2. Description: Effect on treatment of general infectious disease, P. aeruginosa E-2 (Experiment 3). Type of series: in vivo, ddY male mice infected with Pseudomonas aeruginosa. As to conditions: E2, 168 h, oral, 1 h after i.p. infection, 3.1×10^4 CFU/mouse, survival after one week. The protocol:
Pseudomonas aeruginosa E-2 (3.1×10^4 CFU/mouse)
as §2, §3

The test system of series [15] is Klebsiella pneumoniae PCI-602. Description: Antibacterial activity (MIC), Klebsiella pneumoniae PCI-602. Type of series: cell-based. The following applies: PCI602; Klebsiella pneumoniae PCI-602, Gram -; read-out: Minimum inhibitory concentration (MIC). Put shortly: as §1
For series [16], the system named is Staphylococcus aureus IID 803. Description: Antibacterial activity (MIC), S. aureus IID 803. Type of series: cell-based. The gist of the method: as §1
In series [17] the test system is Serratia marcescens IAM 1184. Description: Antibacterial activity (MIC), Serratia marcescens IAM 1184. Type of series: cell-based. As to conditions: Serratia marcescens, IAM1184, Serratia marcescens IAM 1184, Gram -; read-out: Minimum inhibitory concentration (MIC). The gist of the method:
as §1

These results are taken from patent US4971967A, “Quinolinecarboxylic acid derivatives, antibacterial compositions and use” (Kanebo Ltd, priority 1989, dated 1990).

Converted amounts (≈) assume the structure as drawn. Read-outs that look alike come from different tables or passages of the source.

As to `CN1CCN(c2c(F)cc3c(=O)c(C(=O)O)c4scc5n4c3c2N(C)C5)CC1` [Compound (A), 9,1-(Methylimino)methano-7-fluoro-8-(4-methyl-1-piperazinyl)-5-oxo-5H-thiazolo[3,2-a]quinoline-4-carboxylic acid], the MIC is 0.05 µg/mL (≈ 0.124 µM) in series [1]; 0.025 to 0.1 µg/mL (≈ 0.0621 to 0.248 µM) in [2]; 0.05 µg/mL (≈ 0.124 µM) in series [5]; 0.05 µg/mL (≈ 0.124 µM) in series [6] (Staphylococcus aureus FDA 209P JC-1, Gram +); 0.025 µg/mL (≈ 0.0621 µM) in series [9]; 0.05 µg/mL (≈ 0.124 µM) in series [10]. The MIC was found to be 0.05 µg/mL (≈ 0.124 µM) in series [11]; 0.05 µg/mL (≈ 0.124 µM) in series [12]; 0.0125 µg/mL (≈ 0.0311 µM) in [13]; 0.006 µg/mL (≈ 0.0149 µM) in [15]; 0.05 µg/mL (≈ 0.124 µM) in series [16] (IID803, Staphylococcus aureus IID 803, Gram +, read-out: Minimum inhibitory concentration (MIC)); 0.2 µg/mL (≈ 0.497 µM) in series [17]. For the same molecule, the MIC50 in series [2] was 0.05 µg/mL (≈ 0.124 µM). Besides, the MIC90 in [2] was found to be 0.1 µg/mL (≈ 0.248 µM). Also, the “protective effects against infection” value in series [3] is “excellent protective effects against infection”. Moreover, the toxicity result in [4] was “low toxicity”. Further, the figures for the ED50 in series [7] and in [14] were 5.8 mg/kg and 10.2 mg/kg, respectively. In addition, the death of mice entry in [8] is “no death of mice was observed”.

Regarding `CCN1CCN(c2c(F)cc3c(=O)c(C(=O)O)c4scc5n4c3c2N(C)C5)CC1` [Compound (J), 9,1-(Methylimino)methano-7-fluoro-8-(4-ethyl-1-piperazinyl)-5-oxo-5H-thiazolo[3,2-a]quinoline-4-carboxylic acid], the MIC in series [1] is 0.1 µg/mL (≈ 0.24 µM); in series [2], 0.025 to 0.1 µg/mL (≈ 0.06 to 0.24 µM); in [5], 0.1 µg/mL (≈ 0.24 µM); in [6] (Staphylococcus aureus) it was 0.05 µg/mL (≈ 0.12 µM); in [9] it was 0.05 µg/mL (≈ 0.12 µM); in series [10], 0.1 µg/mL (≈ 0.24 µM). Moreover, the MIC in series [11] is 0.1 µg/mL (≈ 0.24 µM); in series [12], 0.1 µg/mL (≈ 0.24 µM); in series [13], 0.025 µg/mL (≈ 0.06 µM); in series [15], 0.006 µg/mL (≈ 0.0144 µM); in series [16] (Staphylococcus aureus, IID803, read-out: Minimum inhibitory concentration (MIC)), 0.05 µg/mL (≈ 0.12 µM); in series [17], 0.39 µg/mL (≈ 0.936 µM). Also, the MIC50 in series [2] came out at 0.05 µg/mL (≈ 0.12 µM). Further, the MIC90 in [2] amounted to 0.1 µg/mL (≈ 0.24 µM). The “protective effects against infection” value in [3] was “excellent protective effects against infection”. Also, the toxicity entry in series [4] is listed as “low toxicity”. Moreover, the ED50 in series [7] was determined as 5.8 mg/kg; in [14] it was 6.8 mg/kg. In addition, the death of mice entry in [8] is “no death of mice was observed”.
